Test results taken from patent publication US11465975B2, “Certain chemical entities, compositions, and methods” (NeuPharma, Inc., priority 2018, dated 2022).
Several values for one entry are separate records, joined by “and”; a condition that tells them apart may be missing. Equal entries are not always repeated.

Assays:
Assay type in all cases: physicochemical
[1] = Preliminary accelerated stability test of Form VI (HPLC, XRPD, DSC); conditions: for Assay % / Average assay (%) / Peak area % / Total impurity (%): solid; for Assay % / Average assay (%) / Peak area %: HPLC; for Total impurity (%): peak area normalized method
Experimental: (§1) HPLCs were preformed using the following instrument and/or conditions.
(§2) Form VI of the compound of Formula I was used for the preliminary accelerated stability test. The samples were exposed to different stressed condition (40° C./75% RH and 60° C.) for 2 weeks. Standard controls were placed at −20° C. Samples and corresponding standard controls were pulled out for XRPD, DSC and HPLC analysis at 0 day, 1st week and 2nd week, respectively. The samples placed under condition without humidity were closed tightly with cap. The samples placed under humidity condition were just covered with aluminum foil with pinholes. HPLC steps were performed as described in Example 14.

[2] = Preliminary accelerated stability test of Form I, non-micronized and micronized (HPLC, XRPD, DSC); parameters: RRT 1.09: unit not given here; conditions: for Stability tested by HPLC, XRPD and DSC (degradation and crystal conversion): 40° C./75% RH and 60° C. for 2 weeks; for Assay % / Average Total impurity (%) / Average assay (%) / Peak area % / RRT 1.09 / Total impurity (%): solid, HPLC
Experimental: as §1
as §2, with “Form” for “Form VI of the compound of Formula”, “I (both non-micronized and micronized)” for “I”

[3] = Competitive test of Form I and Form VI (suspension equilibration, XRPD check); conditions: for Check result at 7 days (form of residual solid, XRPD): room temperature; for Check result at 21 days (form of residual solid, XRPD): 14 days RT then 40° C.; for Check result at 14 days (form of residual solid, XRPD): 7 days RT then 40° C.
Experimental: X-ray powder diffraction (XRD) patterns were obtained on a Bruker D8 Advance. A CuK source (=1.54056 angstrom) operating minimally at 40 kV and 40 mA scans each sample between 4 and 40 degrees 2-theta. The step size is 0.05° C. and scan speed is 0.5 second per step.
Two polymorphic forms of the compound of Formula I, Form I and Form VI, were suspended at the ratio of 1:1 in various solvents and equilibrated at room temperature for a period of time. The forms of the residual solid were checked at 7 days. If still a mixed form, continued to equilibrate at room temperature or 40° C. The solvents were EtOAc, iPoAc, Acetone, MEK, EtOH, IPA, IPE, MTBE, Hexane and Heptane.
XRPD profiles were acquired at the beginning and end of the experiment and compared to XRPD patterns of the known forms.

C=CC(=O)Nc1cccc(-c2cccc3cnc(Nc4ccc(N5CCN(CCO)CC5)c(F)c4F)nc23)c1 [Form VI, N-(3-(2-((2,3-difluoro-4-(4-(2-hydroxyethyl)piperazin-1-yl)phenyl)amino)quinazolin-8-yl)phenyl)acrylamide]
Stability tested by HPLC, XRPD and DSC (degradation and crystal conversion) ([1]; 40° C./75% RH and 60° C. for 2 weeks): No significant degradation and crystal conversion were detected
Assay % ([1]; 40° C./75% RH, 7 days): 91.50% and 91.85%
Average assay (%) ([1]; 40° C./75% RH, 7 days): 91.67%
Peak area % ([1]; 40° C./75% RH, 7 days): 99.0% and 99.1%
Total impurity (%) ([1]; 40° C./75% RH, 7 days): 0.98% and 0.95%
Assay % ([1]; 40° C./75% RH, 14 days): 92.13% and 91.45%
Average assay (%) ([1]; 40° C./75% RH, 14 days): 91.79%
Peak area % ([1]; 40° C./75% RH, 14 days): 99.0%
Total impurity (%) ([1]; 40° C./75% RH, 14 days): 0.99% and 0.96%
Assay % ([1]; 60° C., 7 days): 91.61% and 93.76%
Average assay (%) ([1]; 60° C., 7 days): 92.68%
Peak area % ([1]; 60° C., 7 days): 98.9% and 99.0%
Total impurity (%) ([1]; 60° C., 7 days): 1.10% and 1.04%
Assay % ([1]; 60° C., 14 days): 91.82% and 91.77%
Average assay (%) ([1]; 60° C., 14 days): 91.80%
Peak area % ([1]; 60° C., 14 days): 99.0% and 99.1%
Total impurity (%) ([1]; 60° C., 14 days): 1.01% and 0.94%
Assay % ([1]; −20° C. (standard control)): 92.15% and 92.28%
Average assay (%) ([1]; −20° C. (standard control)): 92.21%
Peak area % ([1]; −20° C. (standard control)): 99.0%
Total impurity (%) ([1]; −20° C. (standard control)): 0.95% and 0.98%

C=CC(=O)Nc1cccc(-c2cccc3cnc(Nc4ccc(N5CCN(CCO)CC5)c(F)c4F)nc23)c1 [micronized Form I, N-(3-(2-((2,3-difluoro-4-(4-(2-hydroxyethyl)piperazin-1-yl)phenyl)amino)quinazolin-8-yl)phenyl)acrylamide]
Stability tested by HPLC, XRPD and DSC (degradation and crystal conversion) [2]: No significant degradation and crystal conversion were detected
Assay % ([2]; 40° C./75% RH, 7 d): 97.67% and 97.30%
Average Total impurity (%) ([2]; 40° C./75% RH, 7 d): 0.86%
Average assay (%) ([2]; 40° C./75% RH, 7 d): 97.48%
Peak area % ([2]; 40° C./75% RH, 7 d): 99.14%
RRT 1.09 ([2]; 40° C./75% RH, 7 d): 0.029 and 0.024
Total impurity (%) ([2]; 40° C./75% RH, 7 d): 0.86%
Assay % ([2]; 40° C./75% RH, 14 d): 96.20% and 98.00%
Average Total impurity (%) ([2]; 40° C./75% RH, 14 d): 0.88%
Average assay (%) ([2]; 40° C./75% RH, 14 d): 97.10%
Peak area % ([2]; 40° C./75% RH, 14 d): 99.11% and 99.12%
RRT 1.09 ([2]; 40° C./75% RH, 14 d): 0.028
Total impurity (%) ([2]; 40° C./75% RH, 14 d): 0.89% and 0.88%
Assay % ([2]; 60° C., 7 d): 98.46% and 97.35%
Average Total impurity (%) ([2]; 60° C., 7 d): 0.85%
Average assay (%) ([2]; 60° C., 7 d): 97.90%
Peak area % ([2]; 60° C., 7 d): 99.15%
RRT 1.09 ([2]; 60° C., 7 d): 0.022 and 0.028
Total impurity (%) ([2]; 60° C., 7 d): 0.85%
Assay % ([2]; 60° C., 14 d): 98.52% and 98.23%
Average Total impurity (%) ([2]; 60° C., 14 d): 0.87%
Average assay (%) ([2]; 60° C., 14 d): 98.37%
Peak area % ([2]; 60° C., 14 d): 99.12% and 99.13%
RRT 1.09 ([2]; 60° C., 14 d): 0.027 and 0.028
Total impurity (%) ([2]; 60° C., 14 d): 0.88% and 0.87%
Assay % ([2]; RT): 98.74% and 98.36%
Average Total impurity (%) ([2]; RT): 0.84%
Average assay (%) ([2]; RT): 98.55%
Peak area % ([2]; RT): 99.14% and 99.18%
RRT 1.09 ([2]; RT): 0.029 and 0.024
Total impurity (%) ([2]; RT): 0.86% and 0.82%

C=CC(=O)Nc1cccc(-c2cccc3cnc(Nc4ccc(N5CCN(CCO)CC5)c(F)c4F)nc23)c1 [Form I and Form VI, N-(3-(2-((2,3-difluoro-4-(4-(2-hydroxyethyl)piperazin-1-yl)phenyl)amino)quinazolin-8-yl)phenyl)acrylamide]
Check result at 7 days (form of residual solid, XRPD) ([3]; 1:1 suspension in EtOH): Form III and Form VI
Check result at 7 days (form of residual solid, XRPD) ([3]; 1:1 suspension in IPA): Form VI
Check result at 7 days (form of residual solid, XRPD) ([3]; 1:1 suspension in MEK): Form I
Check result at 21 days (form of residual solid, XRPD) ([3]; 1:1 suspension in MTBE): Form I
Check result at 7 days (form of residual solid, XRPD) ([3]; 1:1 suspension in acetone): Form I
Check result at 14 days (form of residual solid, XRPD) ([3]; 1:1 suspension in ethyl acetate (EtOAc)): Form I
Check result at 21 days (form of residual solid, XRPD) ([3]; 1:1 suspension in heptane): Mixed
Check result at 21 days (form of residual solid, XRPD) ([3]; 1:1 suspension in hexane): Mixed
Check result at 14 days (form of residual solid, XRPD) ([3]; 1:1 suspension in isopropyl acetate (iPoAc)): Form I
Check result at 21 days (form of residual solid, XRPD) ([3]; 1:1 suspension in isopropyl ether (IPE)): Mixed

C=CC(=O)Nc1cccc(-c2cccc3cnc(Nc4ccc(N5CCN(CCO)CC5)c(F)c4F)nc23)c1 [non-micronized Form I, N-(3-(2-((2,3-difluoro-4-(4-(2-hydroxyethyl)piperazin-1-yl)phenyl)amino)quinazolin-8-yl)phenyl)acrylamide]
Stability tested by HPLC, XRPD and DSC (degradation and crystal conversion) [2]: No significant degradation and crystal conversion were detected
Assay % ([2]; 40° C./75% RH, 7 d): 98.28% and 98.59%
Average Total impurity (%) ([2]; 40° C./75% RH, 7 d): 0.88%
Average assay (%) ([2]; 40° C./75% RH, 7 d): 98.44%
Peak area % ([2]; 40° C./75% RH, 7 d): 99.12%
RRT 1.09 ([2]; 40° C./75% RH, 7 d): 0.027 and 0.032
Total impurity (%) ([2]; 40° C./75% RH, 7 d): 0.88%
Assay % ([2]; 40° C./75% RH, 14 d): 98.24% and 97.53%
Average Total impurity (%) ([2]; 40° C./75% RH, 14 d): 0.86%
Average assay (%) ([2]; 40° C./75% RH, 14 d): 97.88%
Peak area % ([2]; 40° C./75% RH, 14 d): 99.14%
RRT 1.09 ([2]; 40° C./75% RH, 14 d): 0.026 and 0.027
Total impurity (%) ([2]; 40° C./75% RH, 14 d): 0.86%
Assay % ([2]; 60° C., 7 d): 95.99% and 98.78%
Average Total impurity (%) ([2]; 60° C., 7 d): 0.85%
Average assay (%) ([2]; 60° C., 7 d): 97.38%
Peak area % ([2]; 60° C., 7 d): 99.15%
RRT 1.09 ([2]; 60° C., 7 d): 0.030 and 0.028
Total impurity (%) ([2]; 60° C., 7 d): 0.85%
Assay % ([2]; 60° C., 14 d): 98.38% and 99.25%
Average Total impurity (%) ([2]; 60° C., 14 d): 0.85%
Average assay (%) ([2]; 60° C., 14 d): 98.81%
Peak area % ([2]; 60° C., 14 d): 99.17% and 99.14%
RRT 1.09 ([2]; 60° C., 14 d): 0.028
Total impurity (%) ([2]; 60° C., 14 d): 0.83% and 0.86%
Assay % ([2]; RT): 98.98% and 99.18%
Average Total impurity (%) ([2]; RT): 0.84%
Average assay (%) ([2]; RT): 99.08%
Peak area % ([2]; RT): 99.18% and 99.14%
RRT 1.09 ([2]; RT): 0.027
Total impurity (%) ([2]; RT): 0.82% and 0.86%
